Experimental data published in patent publication US20240360126A1, “PYRAZOLO[3,4-B]PYRIDINE COMPOUNDS FOR THE TREATMENT OF AUTOIMMUNE DISEASE” (Hoffmann-La Roche Inc., priority 2021, published 2024).
Like-named read-outs stand apart in the source and are kept apart here.

Legend:
[1] = Human microsome stability assay; assay type: in vitro ADME; conditions: 1 μM test compound, 0.5 mg/mL liver microsomal protein, 37° C.
Method: The human microsomal stability assay is used for early assessment of metabolic stability of a test compound in human liver microsomes.
Human liver microsomes (Cat. NO.: 452117, Corning, USA; Cat. NO.:H2610, Xenotech, USA) were preincubated with test compound for 10 minutes at 37° C. in 100 mM potassium phosphate buffer, pH 7.4. The reactions were initiated by adding NADPH regenerating system.
The final incubation mixtures contained 1 μM test compound, 0.5 mg/mL liver microsomal protein, 1 mM MgCl2, 1 mM NADP, 1 unit/mL isocitric dehydrogenase and 6 mM isocitric acid in 100 mM potassium phosphate buffer, pH 7.4. After incubation times of 0, 3, 6, 9, 15 and 30 minutes at 37° C., 300 μL of cold acetonitrile (including internal standard) was added to 100 μL incubation mixture to terminate the reaction. Following precipitation and centrifugation, the amount of compound remaining in the samples were determined by LC-MS/MS. Controls of no NADPH regenerating system at zero and 30 minutes were also prepared and analyzed.

[2] = Single dose pharmacokinetics (PK) study in male Wister-Han rats; assay type: in vivo; conditions: rat; for clearance / half-life / AUC(0-t) / Vd / Cmax: male, Wister-Han, plasma; for Vd: read-out: Vss; for F: dose normalized AUC0-last after IV and PO dose
Method: Pharmacokinetic properties of selected compounds were assessed by single dose PK studies in Male Wister-Han Rats (vendor: Beijing Vital River Laboratory Animal Technology Co., Ltd). Briefly, two groups of animals were administered a single dose of respective compound intravenously (IV, bolus) at 2 mg/kg or orally (PO, by gavage) at 10 mg/kg. Blood samples (approximately 150 μL) were collected via Jugular vein at 5 min (only for IV), 15 min, 30 min, 1 h, 2 h, 4 h, 7 h and 24 h post-dose. Blood samples were placed into tubes containing EDTA-K2 anticoagulant and centrifuged at 3000 rpm for 15 min at 4° C. to separate plasma from the samples. After centrifugation, the resulting plasma was transferred to clean tubes for bioanalysis with LC/MS/MS. The pharmacokinetic parameters were calculated using non-compartmental analysis. The volume of distribution (Vss), half-life (T1/2) and clearance (CL) were obtained based on the plasma concentration-time curve after IV dose. The peak concentration (Cmax) was recorded directly from experimental observations after PO dose. The area under the plasma concentration-time curve (AUC0-last) was calculated using the linear trapezoidal rule up to the last detectable concentration. The bioavailability (F) was calculated based on the dose normalized AUC0-last after IV and PO dose.
The Vss of a drug represents the degree to which a drug is distributed in body tissue rather than the plasma. Vss is directly proportional with the amount of drug distributed into tissue. A higher Vss indicates a greater amount of tissue distribution.

[3] = IV 2 mg/kg, read-out: IV AUC0-last
[4] = PO 10 mg/kg, read-out: PO AUC0-last

SMILES	Clearance of Human microsome [1]	also measured
Cc1cc(N2CCC(c3cnc(N4CCNCC4)cc3C)[C@H](C)C2)c2cnn(C)c2n1 (single isomer, unassigned) [Example 20, 1,6-dimethyl-4-[cis-3-methyl-4-(4-methyl-6-piperazin-1-yl-3-pyridyl)-1-piperidyl]pyrazolo[3,4-b]pyridine]	9.0 mL/min/kg	
Cc1cc(N2CCC(c3ccc(N4CCNCC4)cn3)CC2)c2cnn(C)c2n1 [Example 2, 1,6-dimethyl-4-[4-(5-piperazin-1-yl-2-pyridyl)-1-piperidyl]pyrazolo[3,4-b]pyridine]	8.2 mL/min/kg	
Cc1cc(N2CCC(c3cnc(N4CCNCC4)cn3)CC2)c2cnn(C)c2n1 [Example 3, 1,6-dimethyl-4-[4-(5-piperazin-1-ylpyrazin-2-yl)-1-piperidyl]pyrazolo[3,4-b]pyridine]	9.3 mL/min/kg	
Cc1cc(N2CCNCC2)cnc1C1CCN(c2ccnc3c2cnn3C)CC1 [Example 5, 1-methyl-4-[4-(3-methyl-5-piperazin-1-yl-2-pyridyl)-1-piperidyl]pyrazolo[3,4-b]pyridine]	9.1 mL/min/kg	
Cc1cc(N2CCNCC2)ncc1C1CCN(c2ccnc3c2cnn3C)CC1 [Example 6, 1-methyl-4-[4-(4-methyl-6-piperazin-1-yl-3-pyridyl)-1-piperidyl]pyrazolo[3,4-b]pyridine]	9.3 mL/min/kg	
Cc1cc(N2CCC(c3ncc(N4CCNCC4)cc3C)CC2)c2cnn(C)c2n1 [Example 7, 1,6-dimethyl-4-[4-(3-methyl-5-piperazin-1-yl-2-pyridyl)-1-piperidyl]pyrazolo[3,4-b]pyridine]	6.2 mL/min/kg	clearance ([2]; IV 2 mg/kg): 16 mL/min/kg; half-life ([2]; IV 2 mg/kg): 882 min; AUC(0-t) [2, 3]: 1520 ng·h/mL; Vd ([2]; IV 2 mg/kg): 16.8 L/kg; Cmax ([2]; PO 10 mg/kg): 465 ng/mL; AUC(0-t) [2, 4]: 7510 ng·h/mL; F [2]: 100%
CCc1cc(N2CCNCC2)cnc1C1CCN(c2cc(C)nc3c2cnn3C)CC1 [Example 13, 4-[4-(3-ethyl-5-piperazin-1-yl-2-pyridyl)-1-piperidyl]-1,6-dimethyl-pyrazolo[3,4-b]pyridine]	7.2 mL/min/kg	
COc1cc(N2CCNCC2)cnc1C1CCN(c2cc(C)nc3c2cnn3C)CC1 [Example 14, 4-[4-(3-methoxy-5-piperazin-1-yl-2-pyridyl)-1-piperidyl]-1,6-dimethyl-pyrazolo[3,4-b]pyridine]	6.7 mL/min/kg	
CO[C@@H]1CN(c2cnc([C@@H]3CCN(c4cc(C)nc5c4cnn5C)C[C@H]3C)c(C)c2)C[C@H]1N [Example 26, (3R,4R)-1-[6-[(3S,4R)-1-(1,6-dimethylpyrazolo[3,4-b]pyridin-4-yl)-3-methyl-4-piperidyl]-5-methyl-3-pyridyl]-4-methoxy-pyrrolidin-3-amine]		clearance ([2]; IV 2 mg/kg): 10.3 mL/min/kg; half-life ([2]; IV 2 mg/kg): 942 min; AUC(0-t) [2, 3]: 2200 ng·h/mL; Vd ([2]; IV 2 mg/kg): 12.5 L/kg; Cmax ([2]; PO 10 mg/kg): 620 ng/mL; AUC(0-t) [2, 4]: 9260 ng·h/mL; F [2]: 84.3%

The next lines start with results.

Clearance of Human microsome [1]	SMILES	also measured
7.8 mL/min/kg	Cc1cc(N2CCC(c3cnc(N4CCNCC4)cc3C)[C@H](C)C2)c2cnn(C)c2n1 (single isomer, unassigned) [Example 21, 1,6-dimethyl-4-[trans-3-methyl-4-(4-methyl-6-piperazin-1-yl-3-pyridyl)-1-piperidyl]pyrazolo[3,4-b]pyridine]	
9.1 mL/min/kg	Cc1cc(N2CC[C@@H](c3ncc(N4CC5(CNCCO5)C4)cc3C)[C@H](C)C2)c2cnn(C)c2n1 [Example 27, 2-[6-[(3S,4R)-1-(1,6-dimethylpyrazolo[3,4-b]pyridin-4-yl)-3-methyl-4-piperidyl]-5-methyl-3-pyridyl]-5-oxa-2,8-diazaspiro[3.5]nonane]	
6.8 mL/min/kg	COC[C@H]1CN(c2cnc([C@@H]3CCN(c4cc(C)nc5c4cnn5C)C[C@H]3C)c(C)c2)CCN1 [Example 29, 4-[(3S,4R)-4-[5-[(3R)-3-(methoxymethyl)piperazin-1-yl]-3-methyl-2-pyridyl]-3-methyl-1-piperidyl]-1,6-dimethyl-pyrazolo[3,4-b]pyridine]	
8.8 mL/min/kg	Cc1cc(N2CC[C@@H](c3ncc(N4CC(C)(N)C4)cc3C)[C@H](C)C2)c2cnn(C)c2n1 [Example 32, 1-[6-[(3S,4R)-1-(1,6-dimethylpyrazolo[3,4-b]pyridin-4-yl)-3-methyl-4-piperidyl]-5-methyl-3-pyridyl]-3-methyl-azetidin-3-amine]	
6.2 mL/min/kg	Cc1cc(N2CC[C@@H](c3ncc(N4C[C@H]5NCCO[C@@H]5C4)cc3C)[C@H](C)C2)c2cnn(C)c2n1 [Example 33, (4aR,7aR)-6-[6-[(3S,4R)-1-(1,6-dimethylpyrazolo[3,4-b]pyridin-4-yl)-3-methyl-4-piperidyl]-5-methyl-3-pyridyl]-3,4,4a,5,7,7a-hexahydro-2H-pyrrolo[3,4-b][1,4]oxazine]	
9.8 mL/min/kg	Cc1cc(N2CC[C@@H](c3ccc(N4CCNCC4)cn3)[C@H](C)C2)c2cnn(C)c2n1 [Example 34, 1,6-dimethyl-4-[(3S,4R)-3-methyl-4-(5-piperazin-1-yl-2-pyridyl)-1-piperidyl]pyrazolo[3,4-b]pyridine]	
6.2 mL/min/kg	Cc1cc(N2CC[C@H](c3ccc(N4CCNCC4)cn3)[C@@H](C)C2)c2cnn(C)c2n1 [Example 35, 1,6-dimethyl-4-[(3R,4S)-3-methyl-4-(5-piperazin-1-yl-2-pyridyl)-1-piperidyl]pyrazolo[3,4-b]pyridine]	
6.2 mL/min/kg	COC[C@H]1CN(c2ccc([C@H]3CCN(c4cc(C)nc5c4cnn5C)C[C@@H]3C)nc2)CCN1 [Example 37, 4-[(3R,4S)-4-[5-[(3R)-3-(methoxymethyl)piperazin-1-yl]-2-pyridyl]-3-methyl-1-piperidyl]-1,6-dimethyl-pyrazolo[3,4-b]pyridine]	
7.8 mL/min/kg	Cc1cc(N2CC[C@H](c3ccc(N4CC5(CNCCO5)C4)cn3)[C@@H](C)C2)c2cnn(C)c2n1 [Example 38, 2-[6-[(3R,4S)-1-(1,6-dimethylpyrazolo[3,4-b]pyridin-4-yl)-3-methyl-4-piperidyl]-3-pyridyl]-5-oxa-2,8-diazaspiro[3.5]nonane]	
6.7 mL/min/kg	CO[C@H]1CN(c2ccc([C@H]3CCN(c4cc(C)nc5c4cnn5C)C[C@@H]3C)nc2)CC[C@@H]1N [Example 39, (3S,4S)-1-[6-[(3R,4S)-1-(1,6-dimethylpyrazolo[3,4-b]pyridin-4-yl)-3-methyl-4-piperidyl]-3-pyridyl]-3-methoxy-piperidin-4-amine]	
7.2 mL/min/kg	Cc1cc(N2CC[C@H](c3ccc(N4CC[C@@H](N)[C@H](F)C4)cn3)[C@@H](C)C2)c2cnn(C)c2n1 [Example 41, (3R,4R)-1-[6-[(3R,4S)-1-(1,6-dimethylpyrazolo[3,4-b]pyridin-4-yl)-3-methyl-4-piperidyl]-3-pyridyl]-3-fluoro-piperidin-4-amine]	
6.5 mL/min/kg	Cc1cc(N2CC[C@H](c3ccc(N4CC(C)(N)C4)cn3)[C@@H](C)C2)c2cnn(C)c2n1 [Example 43, 1-[6-[(3R,4S)-1-(1,6-dimethylpyrazolo[3,4-b]pyridin-4-yl)-3-methyl-4-piperidyl]-3-pyridyl]-3-methyl-azetidin-3-amine]	
